The values below come from patent publication US10426761B2, “Method for treatment of disease caused or aggravated by microorganisms or relieving symptoms thereof” (ARMS Pharmaceutical LLC, priority 2011, dated 2019).

Experiment [1] concerns C. tropicalis. The experiment in a line: MIC, CLSI microdilution (Candida). The class given is cell-based. (In general: In broth dilution the organism is exposed to a series of concentrations in liquid medium.)
For experiment [2], the system named is Y. enterocolitica. Put plainly: MIC, CLSI reference method. As to conditions: 24 h. In kind it is cell-based. On the procedure:
(§1) Cells were allowed to grow in the presence or absence (growth control) of the test agents for 24 hours. The MIC for each agent was defined as the concentration that induced a 100% growth inhibition (compared to no-drug control).

The test system of experiment [3] is S. pneumonia. The experiment in a line: MIC, CLSI reference method. In kind it is cell-based. As to conditions: 24 h. As for the experimental part: as §1
In experiment [4] the test system is P. gingivalis. The experiment in a line: MIC, CLSI reference method. As to conditions: 24 h. In kind it is cell-based. As for the experimental part: as §1
For experiment [5], the system named is S. oralis. Put plainly: MIC, CLSI reference method. The class given is cell-based. As to conditions: 24 h. As for the experimental part: as §1
Experiment [6] concerns S. mutans. The experiment in a line: MIC, CLSI reference method. In kind it is cell-based. As to conditions: 24 h. On the procedure:
as §1

In experiment [7] the test system is S. pyogenes. The experiment in a line: MIC, CLSI reference method. As to conditions: 24 h. The class given is cell-based. On the procedure:
as §1

In experiment [8] the test system is S. mitis. The experiment in a line: MIC, CLSI reference method. As to conditions: 24 h. In kind it is cell-based. On the procedure: as §1
Experiment [9] has as its system S. salivarius. Put plainly: MIC, CLSI reference method. In kind it is cell-based. As to conditions: 24 h, 100% growth inhibition. On the procedure: as §1
Experiment [10] concerns C. krusei. Put plainly: MIC, CLSI microdilution (Candida). The class given is cell-based.
The test system of experiment [11] is F. nucleatum. The experiment in a line: MIC, CLSI reference method. The class given is cell-based, Fusobacterium nucleatum. As to conditions: 24 h. On the procedure: as §1
Experiment [12] has as its system C. albicans. Put plainly: MIC, CLSI microdilution (Candida). The class given is cell-based.
The test system of experiment [13] is C. glabrata. The experiment in a line: MIC, CLSI microdilution (Candida). In kind it is cell-based.
Experiment [14] has as its system Streptococcus salivarius, Candida albicans. The experiment in a line: in vitro filter insert-based barrier model (glycerin / xanthan gum). As for the experimental part: To identify further examples of concentrations of glycerin and xanthan gum that can form a barrier effective in preventing the passage of microorganisms, different concentrations of the gum xanthan gum and humectant glycerin were tested (5%-95% glycerin; 0.005%-0.5% xanthan gum) singly and in combination using an in vitro filter insert-based barrier model. […] Glycerin or xanthan gum or their combinations (100 μL aliquots) were overlaid on the surface of the filter to form a barrier. […] Next, 5×10^4 cells of either bacteria or fungi were applied on top of the formed barrier in the filter inserts. Next, we placed these filter inserts on the surface of agar medium (Brain Heart Infusion (BHI) medium for bacteria, Sabouraud Dextrose (SD) medium for fungi) in 6-well plates. The plates along with the filter inserts were incubated overnight for 24 hours at 37° C. The plates were monitored for the presence of bacterial or fungal growth CFUs (colony forming units) in the agar medium as well as in the filter insert.

With `[H]/N=C(\N/C(=N/[H])NCCCCCCNC(=N)NC(=N)Nc1ccc(Cl)cc1)Nc1ccc(Cl)cc1` [Chlorhexidine, chlorhexidine gluconate], the MIC in experiment [1], in [2], in [3], in [4], in [5] and in [6] was 19.6 μg/mL chlorhexidine in each case. The MIC in experiment [7], in experiment [8], in [9], in [10], in [11] and in experiment [12] was 19.6 μg/mL chlorhexidine each time. Also, the MIC in [13] turned out to be 19.6 μg/mL chlorhexidine.
For the molecule `OCC(O)CO` [glycerin], in [14], the “concentration at which a barrier was formed when tested alone” value is given as “greater than or equal to 55%”.
